The term EC50 denotes the concentration that produces a half-maximal response. As a reminder, the Ki is the dissociation constant of the complex between target and ligand, obtained from inhibition or displacement.

SMILES strings stand for the structures.

Assay [1] has as its target T1, RXRγ (UniProt P28705).
T1 sequence (P28705 1-463): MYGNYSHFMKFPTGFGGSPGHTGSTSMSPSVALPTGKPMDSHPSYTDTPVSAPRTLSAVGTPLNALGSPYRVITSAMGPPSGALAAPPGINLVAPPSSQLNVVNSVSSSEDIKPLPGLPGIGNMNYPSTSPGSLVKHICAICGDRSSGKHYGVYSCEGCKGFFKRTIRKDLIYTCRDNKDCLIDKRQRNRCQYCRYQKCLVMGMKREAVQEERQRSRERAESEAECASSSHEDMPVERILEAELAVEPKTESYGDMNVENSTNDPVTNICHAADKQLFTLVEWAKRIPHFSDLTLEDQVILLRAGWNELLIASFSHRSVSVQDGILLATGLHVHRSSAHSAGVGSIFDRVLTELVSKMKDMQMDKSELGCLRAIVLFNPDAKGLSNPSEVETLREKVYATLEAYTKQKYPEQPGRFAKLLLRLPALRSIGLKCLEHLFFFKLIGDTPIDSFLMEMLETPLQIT
Briefly: holoreceptor transactivation assay. In kind it is cell-based. The conditions noted are these: for EC50: NA = Not Active, read-out: RXR Trans. EC50 (nM) Y; for % efficacy, RXR Trans. Y: relative to 10^−6 M AGN 194204.
Description: (§1) The results obtained in this assay are expressed in EC50 numbers, as they are also in the chimeric receptor transactivation assay. The results of ligand binding assay are expressed in Kd numbers.
(§2) Particularly, the transactivation data pertaining to RAR receptors were obtained in the chimeric assay, and the data pertaining to transactivation of RXR receptors were obtained in the holoreceptor transactivation assay.

Assay [2] concerns the target T2, RARβ (Homo sapiens, UniProt P10826).
T2 sequence (P10826 1-455): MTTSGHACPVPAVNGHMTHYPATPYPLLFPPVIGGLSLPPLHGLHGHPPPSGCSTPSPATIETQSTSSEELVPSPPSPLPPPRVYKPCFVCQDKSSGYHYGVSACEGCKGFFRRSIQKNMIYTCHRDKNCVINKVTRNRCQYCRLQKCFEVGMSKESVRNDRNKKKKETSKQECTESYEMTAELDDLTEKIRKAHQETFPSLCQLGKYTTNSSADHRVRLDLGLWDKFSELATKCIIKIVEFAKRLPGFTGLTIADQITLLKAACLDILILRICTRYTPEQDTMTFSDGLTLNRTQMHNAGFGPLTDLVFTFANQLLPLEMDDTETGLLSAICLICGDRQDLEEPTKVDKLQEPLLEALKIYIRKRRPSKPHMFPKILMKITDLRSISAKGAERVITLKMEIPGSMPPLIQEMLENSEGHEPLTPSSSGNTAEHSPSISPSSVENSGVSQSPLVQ
Briefly: ligand binding assay. Conditions: read-out: RAR Bind. Ki (nM) β.
Description: as §1, §2

Assay [3] has as its target T3, RARγ (Homo sapiens, UniProt P13631).
T3 sequence (P13631 1-454): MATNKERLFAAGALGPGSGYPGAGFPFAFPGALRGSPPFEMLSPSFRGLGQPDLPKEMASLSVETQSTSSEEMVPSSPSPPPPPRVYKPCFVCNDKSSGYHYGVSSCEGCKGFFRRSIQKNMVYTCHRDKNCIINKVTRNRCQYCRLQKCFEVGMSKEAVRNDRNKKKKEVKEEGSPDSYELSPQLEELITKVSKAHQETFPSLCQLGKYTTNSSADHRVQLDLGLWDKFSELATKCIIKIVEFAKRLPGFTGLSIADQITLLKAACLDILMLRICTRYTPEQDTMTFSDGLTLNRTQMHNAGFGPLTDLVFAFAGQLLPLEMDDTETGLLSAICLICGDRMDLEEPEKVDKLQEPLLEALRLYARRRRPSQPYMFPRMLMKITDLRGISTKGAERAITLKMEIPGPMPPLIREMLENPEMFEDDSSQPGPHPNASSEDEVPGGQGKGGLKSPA
Briefly: ligand binding assay. Conditions: read-out: RAR Bind. Ki (nM) Y.
Description: as §1, §2

The target in assay [4] is T4, RXRβ (UniProt P28704).
T4 sequence (P28704 1-520): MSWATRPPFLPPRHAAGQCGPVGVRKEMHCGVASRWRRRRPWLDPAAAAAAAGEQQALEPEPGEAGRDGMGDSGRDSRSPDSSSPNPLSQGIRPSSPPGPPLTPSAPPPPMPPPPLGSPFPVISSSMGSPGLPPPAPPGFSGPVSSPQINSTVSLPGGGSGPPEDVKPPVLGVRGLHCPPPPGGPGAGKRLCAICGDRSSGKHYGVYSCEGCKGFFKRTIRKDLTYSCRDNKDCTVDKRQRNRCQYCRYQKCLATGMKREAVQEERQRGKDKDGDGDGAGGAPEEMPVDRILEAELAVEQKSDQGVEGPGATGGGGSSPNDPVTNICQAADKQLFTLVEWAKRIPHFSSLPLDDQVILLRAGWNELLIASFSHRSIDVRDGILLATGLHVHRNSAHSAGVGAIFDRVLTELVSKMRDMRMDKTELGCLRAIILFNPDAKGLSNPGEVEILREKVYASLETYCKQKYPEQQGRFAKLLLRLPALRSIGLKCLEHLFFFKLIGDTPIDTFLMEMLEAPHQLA
Put plainly: ligand binding assay. The conditions noted are these: read-out: RXR Bind Ki (nM) β.
Description: as §1, §2

Assay [5] addresses T1, RXRγ. Briefly: ligand binding assay. Conditions: read-out: RXR Bind Ki (nM) Y.
In assay [6] the target is T5, RXRα (Homo sapiens, UniProt P19793).
T5 sequence (P19793 1-462): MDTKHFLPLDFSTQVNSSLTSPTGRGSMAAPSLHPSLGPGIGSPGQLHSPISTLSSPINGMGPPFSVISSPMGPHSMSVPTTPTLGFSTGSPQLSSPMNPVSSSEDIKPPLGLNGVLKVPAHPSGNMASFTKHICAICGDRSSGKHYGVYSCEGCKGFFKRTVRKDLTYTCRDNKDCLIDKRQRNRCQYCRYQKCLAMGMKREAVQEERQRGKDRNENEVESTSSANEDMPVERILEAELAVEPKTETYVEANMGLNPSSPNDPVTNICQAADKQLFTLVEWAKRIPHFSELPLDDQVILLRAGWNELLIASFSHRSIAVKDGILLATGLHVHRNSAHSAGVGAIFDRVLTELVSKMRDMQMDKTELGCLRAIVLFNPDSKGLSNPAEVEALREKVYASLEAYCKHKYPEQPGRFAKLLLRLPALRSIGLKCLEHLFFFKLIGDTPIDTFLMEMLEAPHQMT
Put plainly: ligand binding assay.
Description: as §1, §2

Assay [7] has as its target T5, RXRα. Put plainly: holoreceptor transactivation assay. Conditions: for Emax: read-out: % efficacy, RXR Trans. α.
Description: as §1, §2
For assay [8], the target named is T4, RXRβ. Put plainly: holoreceptor transactivation assay. The class given is cell-based. Conditions: for EC50: NA = Not Active, read-out: RXR Trans. EC50 (nM) β; for % efficacy, RXR Trans. β: relative to 10^−6 M AGN 194204.
Description: as §1, §2

For `CC1=CCC(C)(C)c2cc(N(C)c3ccc(C(=O)O)cc3)c(C)cc21` [Compound 44, 4-[Methyl(3,5,8,8-tetramethyl-7,8-dihydronaphthalen-2-yl)amino]benzoic acid], the concentration for a half-maximal effect (EC50) in assay [1] and in assay [7] was more than 1000 nM throughout. Further, the “% efficacy, RXR Trans. Y” value in assay [1] is recorded as “(15) %”. The Ki in assay [2] is more than 10000 nM; in assay [3], more than 10000 nM; in assay [4], more than 1000 nM; in assay [5], more than 1000 nM; in assay [6] it was more than 1000 nM. The Emax in assay [7] was found to be 30%.
For `CCN(c1ccc(C(=O)O)cc1)c1cc2c(cc1C)C(C)=CCC2(C)C` [Compound 45, 4-[Ethyl(3,5,8,8-tetramethyl-7,8-dihydronaphthalen-2-yl)amino]benzoic acid], the EC50 in assay [1] was more than 1000 nM. Also, in assay [1], the “% efficacy, RXR Trans. Y” value is recorded as “(25) %”. For the same compound, the Ki in assay [2] was more than 10000 nM; in assay [3] it was more than 10000 nM; in assay [4] it was more than 1000 nM; in assay [5], more than 1000 nM; in assay [6], more than 1000 nM. Further, the Emax in assay [7] is 50%.
For `CCCN(c1ccc(C(=O)O)cc1)c1cc2c(cc1C)C(C)=CCC2(C)C` [Compound 46, 4-[n-Propyl(3,5,8,8-tetramethyl-7,8-dihydronaphthalen-2-yl)amino]benzoic acid], the EC50 in assay [8] was more than 1000 nM. Moreover, the “% efficacy, RXR Trans. β” value in assay [8] is “(8) %”. The “% efficacy, RXR Trans. Y” value in assay [1] is reported as “(65) %”. In addition, the Ki in assay [2], in assay [3], in assay [4], in assay [5] and in assay [6] was more than 10000 nM in each case. Moreover, in assay [7], the Emax came to 55%.
Regarding `CCN(c1ccc(C(=O)O)cc1)c1ccc2c(c1)C(C(C)(C)C)=CCC2(C)C` [Compound 88], the EC50 in assay [8] came out at 41 nM; in assay [1], 5 nM; in assay [7], 4 nM. In addition, the “% efficacy, RXR Trans. β” value in assay [8] was “(100) %”. In addition, the “% efficacy, RXR Trans. Y” value in assay [1] was “(120) %”. The Ki in assay [2] is more than 10000 nM; in assay [3] it was 3500 nM; in assay [4] it was 12 nM; in assay [5], 21 nM; in assay [6] it was 3 nM. Also, in assay [7], the Emax was 114%.
On to `CCN(c1ccc(C(=O)O)cc1)c1cc2c(cc1OC)C(C)(C)CC=C2C(C)C` [Compound 148, 4-[Ethyl-(8-isopropyl-3-methoxy-5,5-dimethyl-5,6-dihydronaphthalen-2-yl)amino]benzoic acid], for which the EC50 in assay [8] amounted to 8 nM; in assay [1] it was 2 nM; in assay [7], 0.5 nM. Also, the “% efficacy, RXR Trans. β” value in assay [8] is reported as “(63) %”. Besides, the “% efficacy, RXR Trans. Y” value in assay [1] is given as “(101) %”. For the same compound, the Ki is 7500 nM in assay [2]; more than 10000 nM in assay [3]; 15 nM in assay [4]; 37 nM in assay [5]; 5 nM in assay [6]. Also, the Emax in assay [7] was 64%.
Consider `CCN(c1ccc(C(=O)O)cc1)c1cc2c(cc1OCc1ccccc1)C(C)(C)CC=C2C(C)C` [Compound 154, 4-[(3-Benzyloxy-8-isopropyl-5,5-dimethyl-5,6-dihydronaphthalen-2-yl)ethylamino]benzoic acid], for which the Ki was determined as 1800 nM in assay [2]; 6200 nM in assay [3]; 19 nM in assay [4]; 41 nM in assay [5]; 3 nM in assay [6].
With `CCN(c1ccc(C(=O)O)cc1)c1cc2c(cc1OCc1ccc(C)cc1)C(C)(C)CC=C2C(C)C` [Compound 155, 4-{Ethyl-[8-isopropyl-5,5-dimethyl-3-(4-methylbenzyloxy)-5,6-dihydronaphthalen-2-yl]amino}benzoic acid], the Ki in assay [2] amounted to 1400 nM; in assay [3], 2900 nM; in assay [4] it was 334 nM; in assay [5], 398 nM; in assay [6] it was 3 nM.
On to `CCN(c1ccc(C(=O)O)cc1)c1cc2c(cc1OCc1cc(C(C)(C)C)cc(C(C)(C)C)c1)C(C)(C)CC=C2C(C)C` [Compound 156, 4-{[3-(3,5-di-t-butylbenzyloxy)-8-isopropyl-5,5-dimethyl-5,6-dihydronaphthalen-2-yl]ethylamino}benzoic acid], for which the Ki in assay [2] is 1500 nM; in assay [3], 4200 nM; in assay [4], more than 1000 nM; in assay [5] it was more than 1000 nM; in assay [6] it was 804 nM.
As to `CCN(c1ccc(C(=O)O)cc1)c1cc2c(cc1OCc1ccccc1)C(C)(C)CC=C2C(C)(C)C` [Compound 158], the Ki was found to be 374 nM in assay [2]; 881 nM in assay [3]; 3 nM in assay [4]; 161 nM in assay [5]; 4 nM in assay [6].
With `CCN(c1ccc2c(c1)C(C)=CCC2(C)C)c1ccc(C(=O)O)cn1` [Compound 170, 6-[Ethyl-(5,5,8-trimethyl-5,6-dihydro-naphthalen-2-yl)-amino]-nicotinic acid], the concentration for a half-maximal effect (EC50) in assay [8] amounted to 379 nM; in assay [1], 67 nM; in assay [7], 33 nM. Further, the “% efficacy, RXR Trans. β” value in assay [8] is on record as “(110) %”. Besides, in assay [1], the “% efficacy, RXR Trans. Y” value was “(127) %”. Besides, the Ki in assay [2] was more than 10000 nM; in assay [3], more than 10000 nM; in assay [4] it was 190 nM; in assay [5], 61 nM; in assay [6] it was 64 nM. For the same compound, the Emax in assay [7] is 113%.

Source of the values: US20030166932A1 (priority 2002, published 2003).
